We go through 5 compounds from patent publication EP0695544B1, “Hard gelatin capsules resistant to denaturation and the production thereof” (SHIONOGI & CO., LTD., priority 1994, dated 1996).

Entries after “also recorded” stand apart in the source; their conditions may differ. Read-outs that look alike come from different tables or passages of the source.

A short description of series [1]: Solubility of gelatin capsule shells filled with PEG 4000 and free radical scavenger after storage (Example 3). The series is classed as physicochemical. The following applies: 5 parts scavenger + 95 parts PEG 4000 packed into capsule, 60°C for a week, content removed; 2nd solution of JP12 (37 °C). The protocol:
After storage in a tightly closed glass bottle at 60°C for a week, the capsule content was removed and solubility of each capsule shell was examined in the same manner as in Example 1.

The conditions of series [2]: capsule shells stored without contact over 95 parts PEG 6000 + 5 parts scavenger, 60°C for a week, 2nd solution of JP12 (37 °C), observed after 5 to 6 minutes.

With polyphosphoric acid, the Solubility entry in series [1] was “soluble rapidly”.

`N[C@@H](CCC(=O)N[C@@H](CS)C(=O)NCC(=O)O)C(=O)O` [glutathione]: in series [1], the Solubility result is listed as “soluble rapidly”.

Regarding `Cc1c(C)c2c(c(C)c1O)CC[C@@](C)(CCC[C@H](C)CCC[C@H](C)CCCC(C)C)O2` [d-α -tocopherol], the Solubility entry in series [1] is on record as “soluble rapidly”; in series [2] it was “soluble rapidly”; in series [2] (listed as tocopherol), “completely prevented the decrease of the solubility”.

Take `O=P(=O)O` [metaphosphoric acid]: the Solubility entry in series [1] is “soluble rapidly”.

Turning to `Cc1cc2nc3c(=O)[nH]c(=O)nc-3n(C[C@H](O)[C@H](O)[C@H](O)CO)c2cc1C` [riboflavin], the Solubility entry in series [2] was “completely prevented the decrease of the solubility; also recorded: soluble rapidly”.
